Holding throughout (format): in vivo
Assay [1] has as its system Poa annua. Kind of assay: greenhouse post-emergence herbicidal activity (use examples). To be noted: POAAN, 0.031 kg/ha, scale 0 to 100. An excerpt:
(§1) The seeds of the test plants were sown separately for each species. For the pre-emergence treatment, the active ingredients, which had been suspended or emulsified in water, were applied directly after sowing by means of finely distributing nozzles. The containers were irrigated gently to promote germination and growth and subsequently covered with transparent plastic hoods until the plants had rooted. This cover caused uniform germination of the test plants, unless this had been impaired by the active ingredients. For the post-emergence treatment, the test plants were first grown to a height of 3 to 15 cm, depending on the plant habit, and only then treated with the active ingredients which had been suspended or emulsified in water. For this purpose, the test plants were either sown directly and grown in the same containers, or they were first grown separately as seedlings and transplanted into the test containers a few days prior to treatment. Depending on the species, the plants were kept at 10-25° C. or 20-35° C., respectively. The test period extended over 2 to 4 weeks. During this time, the plants were tended, and their response to the individual treatments was evaluated. Evaluation was carried out using a scale from 0 to 100. 100 means no emergence of the plants, or complete destruction of at least the aerial moieties, and 0 means no damage, or normal course of growth. A good herbicidal activity is given at values of at least 70 and a very good herbicidal activity is given at values of at least 85. The plants used in the greenhouse experiments were of the following species: [table]

In assay [2] the test system is Stellaria media. Described as above. To be noted: STEME, 0.031 kg/ha, scale 0 to 100.
Description: as §1

Assay [3] relates to Thlaspi arvense. The description is as above. To be noted: THLAR, 0.031 kg/ha, scale 0 to 100.
Description: as §1

In assay [4] the test system is Zea mays. Kind of assay: greenhouse post-emergence herbicidal activity on crop plant corn (use examples). To be noted: ZEAMX (corn, crop plant), 0.031 kg/ha, scale 0 to 100.
Description: as §1

By plant injury is commonly meant the degree to which the test organism was suppressed or injured, in per cent. As to `CCC(=O)N(C)c1c(Cl)ccc(C2=C(O)c3ncccc3C(C)(C)S2(=O)=O)c1Cl` [Compound I-10, N-[2,6-dichloro-3-(8-hydroxy-5,5-dimethyl-6,6-dioxo-thiopyrano[4,3-b]pyridin-7-yl)phenyl]-N-methyl-propanamide], the Herbicidal activity came out at 98 in assay [1], 100 in assay [2] and 100 in assay [3]. The molecule also yielded a plant injury at 31 g/ha in assay [4] of 30%.
